Assay results: ChEMBL document CHEMBL5729177, “GLS1 inhibitors for treating disease” (2022)

Molecular target: T1, Glutaminase kidney isoform, mitochondrial (Homo sapiens, UniProt O94925)
T1 sequence (O94925 whole entry): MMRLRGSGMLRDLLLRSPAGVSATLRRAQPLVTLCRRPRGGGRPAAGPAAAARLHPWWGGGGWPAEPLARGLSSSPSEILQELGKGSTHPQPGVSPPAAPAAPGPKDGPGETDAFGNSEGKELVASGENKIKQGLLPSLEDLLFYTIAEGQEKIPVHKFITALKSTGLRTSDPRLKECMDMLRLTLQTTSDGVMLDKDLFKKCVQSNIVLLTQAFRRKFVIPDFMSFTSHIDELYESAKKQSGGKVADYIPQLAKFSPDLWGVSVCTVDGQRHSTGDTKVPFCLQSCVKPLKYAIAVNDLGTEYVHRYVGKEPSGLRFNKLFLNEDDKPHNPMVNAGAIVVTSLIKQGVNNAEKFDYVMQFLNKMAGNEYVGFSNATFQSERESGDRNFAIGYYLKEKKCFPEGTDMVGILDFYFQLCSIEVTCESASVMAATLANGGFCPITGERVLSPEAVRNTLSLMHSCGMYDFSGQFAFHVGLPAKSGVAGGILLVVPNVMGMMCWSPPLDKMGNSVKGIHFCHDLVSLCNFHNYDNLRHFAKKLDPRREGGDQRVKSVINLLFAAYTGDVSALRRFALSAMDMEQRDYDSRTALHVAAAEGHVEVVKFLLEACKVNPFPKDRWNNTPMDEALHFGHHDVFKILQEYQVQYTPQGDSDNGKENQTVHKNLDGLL
Assay: Enzymatic Activity Assay: The inhibition of purified recombinant human GAC by varying concentrations of inhibitors is assessed via a dual-coupled enzymatic assay. The glutamate produced by the glutaminase reaction is used by glutamate oxidase to produce α-ketoglutarate, ammonia, and hydrogen peroxide, with this hydrogen peroxide subsequently being used by horseradish peroxidase to produce resorufin in the presence of Amplex UltraRed. The assay buffer consisted of 50 mM Hepes (pH 7.4), 0.25 mM EDTA and 0.1 mM Triton X-100. GAC was incubated with potassium phosphate (10 minutes at room temperature) prior to incubation with inhibitor (10 minutes at room temperature). The final reaction conditions were as follows: 2 nM GAC, 50 mM potassium phosphate, 100 mU/mL glutamate oxidase (Sigma), 1 mM glutamine (Sigma), 100 mU/mL horseradish peroxidase (Sigma), 75 μM Amplex UltraRed (Life Technologies), and 1% (v/v) DMSO. The production of resorufin was monitored on a Perkin Elmer Envision plate reader (excitation 530 nm, emission 590 nm) either in a kinetics or endpoint mode (at 20 minutes). IC50 values were calculated using a four-parameter logistic curve fit.

- IC50: < 100 nM
Compound: O=C(NCc1cc(OC(F)(F)F)ccc1F)c1cn(CCC(F)Cn2cc(C(=O)NCc3ccccn3)nn2)nn1 (stereo unspecified)
